Data reported in patent US7465581B2, “ANKTM1, a cold-activated TRP-like channel expressed in nociceptive neurons” (The Scripps Research Institute, priority 2002, dated 2008).
Entries after “also recorded” stand apart in the source; their conditions may differ.

Experiments:
[1] = molecular target: T1, ANKTM1 (Mus musculus, UniProt Q8BLA8); experiment: Intracellular calcium imaging (Fura-2) of ANKTM1-expressing CHO cells; type: cell-based, murine; conditions: for activation of ANKTM1-expressing cells by compound: rise in intracellular calcium, 340/380 ratio, FIG. 4B
T1 construct: pcDNA5FRT/TO containing full-length murine ANKTM1; expressed in transfected cells; host or cells: tetracycline-inducible CHO-K1/FRT cells (Flp-In)
Description: Nevertheless, since ANKTM1 bears similarities to TRP-like channels expressed in sensory neurons, tests were conducted to determine activation of ANKTM1 by various sensory stimuli. To this end, a series of tests were conducted using full-length murine ANKTM1 stably transfected in Chinese Hamster Ovary (CHO) cells containing FRT sites (CHO-K1/FRT) under control of a tetracycline (Tet)-inducible promoter via Flp recombinase mediated recombination. To circumvent this problem, cell lines were generated in which ANKTM1 expression could be controlled. Tetracycline-inducible CHO-K1/FRT cells lines were generated by transfecting the CHO Flp-In host cell line with pcDNA6/TR according to manufacturer's instructions (Invitrogen, San Diego, Calif.) and selected in 5 μg/mL Blasticidin. Clones stably expressing the tetracycline repressor identified by blasticidin resistance were transiently transfected with a control plasmid containing the CAT gene and selected based on high levels of CAT expression after treatment with tetracycline. The gene expression vector; pcDNA5FRT/TO containing full-length murine ANKTM1 and the Flp recombinase expression plasmid pOG44 were co-transfected into the tetracycline-inducible CHO-K1/FRT cell line and selected via Hygromycin resistance (200 μg/ml). Induction of ANKTM1 was accomplished by treating CHO cells with 1-2 μg/mL tetracycline (Tet) 5-24 hours before experiments. Calcium imaging experiments were performed essentially as described (Peier et al., 2002a, supra). Briefly, cells were plated on glass coverslips 24-48 hours prior to imaging experiments. Cells were washed in HEPES buffeted saline solution (2 mM Ca^2+), loaded with Fura-2 acetoxymethyl ester ([…]), 1.5 mM pluronic acid (Molecular Probes, Eugene, Oreg.) and incubated for 1 hour at room temperature in the dark. Coverslips were placed in laminar flow chamber (Warner Instrument Corp., Hamden, Conn.) and perfused with HEPES buffered saline (2 mM Ca^2+) flowing through small-diameter tubing at the inlet of the chamber. Perfusion rate was approximately 2 ml/min and was stopped and started via a solenoid switch (Warner Instrument Corp., Hamden, Conn. Perfusate temperature was controlled by a Peltier device and monitored via miniature thermocouple at the inlet of the chamber. Heated (up to 52° C.), chilled (down to 9° C., the limit of our system), and room temperature buffer was delivered through the same application tubing at the inlet of the chamber. Alternatively, in experiments where the compounds menthol (Sigma, St. Louis, Mo.]), capsaicin (Fluka, Buchs, Switzerland) and Icilin (Tocris Woodson,) were applied, cells were plated on 24-well tissue culture plates and loaded with Fura-2. Compounds were delivered with a 3 cc syringe during a period of ten seconds. Images of Fura-2 loaded cells with the excitation wavelength alternating between 340 nm and 380 nm were captured with a cooled […] camera. The ratio of fluorescence intensity of the two wavelengths of groups of 30-50 cells in each experiment was analyzed using MetaFluor (Universal Imaging Corp). Experiments were performed in triplicate. Unless otherwise indicated, graphs represent averaged responses of 20-40 cells from representative experiments. For direct comparison of results from different experiments, values were normalized to baseline of the ratio 340/380. For ANKTM1 and TRPM8 threshold experiments, the threshold temperature of activation of 60-100 cells each from three replicate experiments was analyzed. Threshold of activation was defined as 20% above baseline. Hanks Balanced Salt Solution (HBSS) and HEPES buffers were obtained from GibcoBRL.

[2] = molecular target: T2, TRPM8 (Mus musculus, UniProt Q8R4D5); experiment: Intracellular calcium imaging (Fura-2) of TRPM8-expressing CHO cells; type: cell-based, murine
T2 construct: expressed in transfected cells; host or cells: CHO-K1/FRT cells
Description: CHO-K1/FRT cells were stably transfected with full-length murine ANKTM1 in the pcDNA5/FRT vector using Lipofectamine (Invitrogen) according to the manufacturer's protocol. Transfected cells were selected in growth medium containing Hygromycin (200 μg/mL). Northern blot analysis identified stable clones expressing ANKTM1 mRNA. The generation of stable murine TRPM8-expressing CHO-K1/FRT cells has been previously described (Peier et al, 2002). ANKTM1-expressing stable CHO-K1/FRT lines appeared unhealthy (membrane blebbing, cytoplasmic granulations) in culture, and after several passages, a loss of ANTKM1 expression was observed. Previous investigators have also claimed difficulty generating stable cell lines expressing human ANKTM1.
Calcium imaging experiments were performed essentially as described (Peier et al., 2002a, supra). Briefly, cells were plated on glass coverslips 24-48 hours prior to imaging experiments. […]
Images of Fura-2 loaded cells with the excitation wavelength alternating between 340 nm and 380 nm were captured with a cooled […] camera. The ratio of fluorescence intensity of the two wavelengths of groups of 30-50 cells in each experiment was analyzed using MetaFluor (Universal Imaging Corp). […] For ANKTM1 and TRPM8 threshold experiments, the threshold temperature of activation of 60-100 cells each from three replicate experiments was analyzed. […]

[3] = molecular target: T3, TRPV1 (Rattus norvegicus, UniProt O35433); experiment: Intracellular calcium imaging (Fura-2) of TRPV1-expressing CHO cells; type: cell-based; conditions: rise in intracellular calcium, 340/380 ratio, FIG. 4B
T3 construct: expressed in transfected cells; host or cells: CHO cells
Description: Calcium imaging experiments were performed essentially as described (Peier et al., 2002a, supra). Briefly, cells were plated on glass coverslips 24-48 hours prior to imaging experiments. Cells were washed in HEPES buffeted saline solution (2 mM Ca^2+), loaded with Fura-2 acetoxymethyl ester ([…]), 1.5 mM pluronic acid (Molecular Probes, Eugene, Oreg.) and incubated for 1 hour at room temperature in the dark. Coverslips were placed in laminar flow chamber (Warner Instrument Corp., Hamden, Conn.) and perfused with HEPES buffered saline (2 mM Ca^2+) flowing through small-diameter tubing at the inlet of the chamber. Perfusion rate was approximately 2 ml/min and was stopped and started via a solenoid switch (Warner Instrument Corp., Hamden, Conn. Perfusate temperature was controlled by a Peltier device and monitored via miniature thermocouple at the inlet of the chamber. Heated (up to 52° C.), chilled (down to 9° C., the limit of our system), and room temperature buffer was delivered through the same application tubing at the inlet of the chamber. Alternatively, in experiments where the compounds menthol (Sigma, St. Louis, Mo.]), capsaicin (Fluka, Buchs, Switzerland) and Icilin (Tocris Woodson,) were applied, cells were plated on 24-well tissue culture plates and loaded with Fura-2. Compounds were delivered with a 3 cc syringe during a period of ten seconds. […]

[4] = molecular target: T2, TRPM8; conditions: McKemy et al., 2002; cited from earlier work
[5] = molecular target: T3, TRPV1; conditions: general statement; cited from earlier work

T1 sequence (Q8BLA8 whole entry): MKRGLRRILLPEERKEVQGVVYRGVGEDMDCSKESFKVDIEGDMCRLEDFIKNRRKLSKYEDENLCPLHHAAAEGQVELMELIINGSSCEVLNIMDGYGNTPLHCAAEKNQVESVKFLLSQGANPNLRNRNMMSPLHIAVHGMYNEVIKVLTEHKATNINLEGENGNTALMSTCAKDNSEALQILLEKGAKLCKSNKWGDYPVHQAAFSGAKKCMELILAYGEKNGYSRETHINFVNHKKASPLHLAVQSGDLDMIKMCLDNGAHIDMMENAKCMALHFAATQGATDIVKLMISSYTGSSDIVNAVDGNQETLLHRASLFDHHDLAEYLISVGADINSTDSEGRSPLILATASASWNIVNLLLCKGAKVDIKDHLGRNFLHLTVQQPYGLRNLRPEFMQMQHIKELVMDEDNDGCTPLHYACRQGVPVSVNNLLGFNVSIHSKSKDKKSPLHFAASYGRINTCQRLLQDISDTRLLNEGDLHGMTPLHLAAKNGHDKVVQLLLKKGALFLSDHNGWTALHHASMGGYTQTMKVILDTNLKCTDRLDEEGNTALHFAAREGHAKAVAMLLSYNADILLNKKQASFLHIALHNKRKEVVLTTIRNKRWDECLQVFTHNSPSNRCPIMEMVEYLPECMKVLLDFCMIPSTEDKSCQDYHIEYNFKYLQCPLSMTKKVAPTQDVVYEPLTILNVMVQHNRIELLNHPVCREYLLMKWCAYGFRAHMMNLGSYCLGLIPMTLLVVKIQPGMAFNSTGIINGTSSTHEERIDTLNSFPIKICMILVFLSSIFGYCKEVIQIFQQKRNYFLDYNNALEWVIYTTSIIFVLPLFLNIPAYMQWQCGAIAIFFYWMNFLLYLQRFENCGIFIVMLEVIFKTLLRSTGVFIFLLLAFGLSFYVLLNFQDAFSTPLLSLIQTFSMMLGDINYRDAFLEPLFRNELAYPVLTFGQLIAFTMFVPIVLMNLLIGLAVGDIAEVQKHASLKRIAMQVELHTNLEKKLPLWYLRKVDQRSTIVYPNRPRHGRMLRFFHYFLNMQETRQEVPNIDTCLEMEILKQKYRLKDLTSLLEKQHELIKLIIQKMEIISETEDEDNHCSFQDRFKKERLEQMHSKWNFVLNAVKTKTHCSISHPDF
T2 sequence (Q8R4D5 whole entry): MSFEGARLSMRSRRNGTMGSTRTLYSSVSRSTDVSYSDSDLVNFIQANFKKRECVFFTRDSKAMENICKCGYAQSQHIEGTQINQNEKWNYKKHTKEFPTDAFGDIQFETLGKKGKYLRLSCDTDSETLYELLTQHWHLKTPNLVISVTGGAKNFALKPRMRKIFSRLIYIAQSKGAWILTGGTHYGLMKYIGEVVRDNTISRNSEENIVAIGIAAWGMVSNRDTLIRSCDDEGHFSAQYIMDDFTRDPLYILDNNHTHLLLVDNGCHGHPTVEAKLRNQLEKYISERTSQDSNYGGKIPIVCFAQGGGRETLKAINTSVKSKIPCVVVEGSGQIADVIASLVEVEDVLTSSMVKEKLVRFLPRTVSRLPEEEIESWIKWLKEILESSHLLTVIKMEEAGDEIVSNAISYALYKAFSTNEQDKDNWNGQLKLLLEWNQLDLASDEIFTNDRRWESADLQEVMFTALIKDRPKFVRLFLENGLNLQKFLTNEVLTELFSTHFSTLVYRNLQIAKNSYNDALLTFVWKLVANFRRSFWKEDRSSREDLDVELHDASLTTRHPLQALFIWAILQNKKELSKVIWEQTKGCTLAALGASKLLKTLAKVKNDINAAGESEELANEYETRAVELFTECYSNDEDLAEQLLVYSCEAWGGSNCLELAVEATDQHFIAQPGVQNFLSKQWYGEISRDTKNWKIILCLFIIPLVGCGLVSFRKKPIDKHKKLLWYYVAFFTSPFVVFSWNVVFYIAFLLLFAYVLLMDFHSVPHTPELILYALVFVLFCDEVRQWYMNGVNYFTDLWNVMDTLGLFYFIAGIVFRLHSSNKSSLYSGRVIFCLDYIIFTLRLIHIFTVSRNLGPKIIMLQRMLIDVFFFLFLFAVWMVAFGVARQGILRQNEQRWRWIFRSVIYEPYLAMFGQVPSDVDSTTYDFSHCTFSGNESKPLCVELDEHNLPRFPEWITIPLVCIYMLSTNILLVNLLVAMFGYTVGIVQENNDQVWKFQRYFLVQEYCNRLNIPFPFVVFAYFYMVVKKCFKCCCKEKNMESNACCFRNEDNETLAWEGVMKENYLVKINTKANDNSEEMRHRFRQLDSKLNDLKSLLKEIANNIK
T3 sequence (O35433 whole entry): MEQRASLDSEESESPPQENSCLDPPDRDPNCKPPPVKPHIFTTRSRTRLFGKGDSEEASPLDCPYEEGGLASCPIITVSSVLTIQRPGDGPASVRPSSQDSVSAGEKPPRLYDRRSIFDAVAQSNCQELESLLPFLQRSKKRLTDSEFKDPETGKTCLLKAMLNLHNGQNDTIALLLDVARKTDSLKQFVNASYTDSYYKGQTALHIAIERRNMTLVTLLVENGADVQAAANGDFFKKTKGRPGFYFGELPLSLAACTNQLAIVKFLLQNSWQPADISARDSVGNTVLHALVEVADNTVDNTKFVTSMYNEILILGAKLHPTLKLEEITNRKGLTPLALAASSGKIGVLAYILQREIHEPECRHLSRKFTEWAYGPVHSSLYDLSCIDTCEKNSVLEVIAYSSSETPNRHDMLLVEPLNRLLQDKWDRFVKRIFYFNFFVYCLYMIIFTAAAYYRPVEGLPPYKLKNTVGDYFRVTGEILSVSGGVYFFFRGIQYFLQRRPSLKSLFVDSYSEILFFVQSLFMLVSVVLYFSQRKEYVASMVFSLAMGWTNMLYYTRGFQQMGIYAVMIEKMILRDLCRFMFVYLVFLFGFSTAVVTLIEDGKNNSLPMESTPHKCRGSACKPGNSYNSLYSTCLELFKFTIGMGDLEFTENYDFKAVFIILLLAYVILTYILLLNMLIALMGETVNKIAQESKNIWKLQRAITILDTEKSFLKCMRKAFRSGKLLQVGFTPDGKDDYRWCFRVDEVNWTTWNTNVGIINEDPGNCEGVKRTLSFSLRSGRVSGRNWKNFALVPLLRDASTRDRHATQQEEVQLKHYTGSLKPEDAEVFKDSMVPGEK

**Q.** For `O=C1NC(c2cccc([N+](=O)[O-])c2)=CCN1c1ccccc1O` [Icilin], which delay of response ([1]; ANKTM1 cells) is on record?
**A.** 15 to 60 s

**Q.** What about the “concentration required for ANKTM1 activation compared to TRPM8” value ([1]; comparison with TRPM8-expressing cells) of the same compound?
**A.** Higher concentrations

**Q.** What about the “activation of ANKTM1-expressing cells by compound” value [1] of the same compound?
**A.** activated

**Q.** And the delay of response ([2]; TRPM8 cells)?
**A.** 15 s

**Q.** What about the “activation of TRPV1-expressing cells by compound” value [3] of the same compound?
**A.** did not activate

**Q.** What about the “activator of TRPM8” value [4] of the same compound?
**A.** potent activator

**Q.** For `CC1CCC(C(C)C)C(O)C1` (stereo not drawn) [Menthol, menthol], which “activation of ANKTM1-expressing cells by compound” value [1] is on record?
**A.** failed to activate

**Q.** Which “activation of ANKTM1-expressing cells by compound” value [1] does the source give for `COc1cc(CNC(=O)CCCC/C=C/C(C)C)ccc1O` [capsaicin] here?
**A.** did not activate

**Q.** And the “activation of TRPM8-expressing cells by compound” value ([2]; rise in intracellular calcium, 340/380 ratio, FIG. 4B)?
**A.** did not activate

**Q.** And the “activator of TRPV1” value [5]?
**A.** potent activator

**Q.** What does the source list for `N.N.N.N.N.N.N.N.N.N.N.N.N.N.[Cl-].[Cl-].[Cl-].[Cl-].[Cl-].[Cl-].[O-2].[O-2].[Ru+3].[Ru+3].[Ru+4]` [ruthenium red]?
**A.** block of cold responses by ANKTM1 ([1]; 5 μM ruthenium red, pre-incubation or present during cooling, ANKTM1-expressing CHO cells, not entirely recovered after ten minute washout): eliminates cold-evoked responses; also recorded: completely blocked; ANKTM1-containing cells with complete block of the cold response ([1]; 1 μm ruthenium red, multiple experiments): 90%
